From US20240248442A1, “COMPUTER-IMPLEMENTED METHOD FOR APPLYING A GLUTAMINE […] ON AN AG[…]” (BASF SE, priority 2021, published 2024) come the findings set out here.

The test system of this experiment is GLXMA (Glycine max; soybean plant). Briefly: Greenhouse spray test of glufosinate efficacy on soybean plants under different nitrogen supply. The experiment is classed as in vivo. The following applies: GF-solution 280 g/l glufosinate-ammonium, 300 g a.i./ha, water rate 200 l/ha, assessed 3 and 7 daa (time of this value not stated). On the procedure: GLXMA (Glycine max; soybean plant) plants were grown on soil in a green house. Before separation into single pots plants were watered with demineralized water (VE-water). After separation into single pots and splitting into four different nourishing groups, the pots were individually watered with 50 ml of the respective nutrient solution. The following recipe for the full-nutrient solution (5 mM N) mentioned in the book “Diagnose des Ernährungszustandes von Kulturpflanzen”, ISBN: 978-3-86263-118-6, table 3-2, page 94 has been used:
Plants were grown until the growth stage GS 61 (58-74 cm), where first symptoms of nutrient deficiency became visible. This included yellowing of the leaves which were watered with N-deficient media.
A spray application was performed in a high speed spray cabin with the following settings: used nozzle: TT 110 02; pressure: 3 bar; speed: 1.33 m/s; temperature: 22° C.; relative spray humidity: 55%
Spray solution: A GF-solution comprising 280 g/l glufosinate-ammonium is sprayed with an a.i. dose rate of 300 g/ha and a water rate of 200 l/ha. The control plants were sprayed with water (ddH2O) only. After spraying, all plants were watered with VE-water. A biological assessment was performed 3 and 7 days after application (daa).
In other words, to achieve an N-deficiency, the plants were separated in four different groups, which were watered with 4 different nutrient solutions. The “full” medium contained a final concentration of 5 mM N nitrogen-sources, whereas the N-deficiency media contained either 0 mM N (“null” medium) or 1.25 mM N and 2.5 mM N (“deficiency” media). Nutrient deficiency became visible at the GS 61.
In FIGS. 2 and 3, GLXMA is Glycine max (soybean plant), G ai/ha is grams of active ingredient per hectare, CWD is the control group without treatment, GF-Solution is the solution comprising 280 g/l glufosinate-ammonium. At full (5 mM) or half full (2.5 mM) nitrogen supply was detected and rated to an average of 35. Lowering the nitrogen supply to a level of 1.25 mM increases the efficacy of glufosinate to 48, which is visibly by more chlorotic and necrotic tissue. Under complete nitrogen deficiency the symptoms are boosted and result in an average efficacy rating of 75.

For `CP(=O)(O)CCC(N)C(=O)O` (racemic) [glufosinate, (2RS)-2-amino-4-[hydroxy-(methyl)phosphinoyl]butyric acid], the “average efficacy rating (biological assessment)” value turned out to be 75 (complete nitrogen deficiency (0 mM N)), 35 (full (5 mM) nitrogen supply), 35 (half full (2.5 mM) nitrogen supply) and 48 (nitrogen supply 1.25 mM).
